The CheMixHub viscosity set

Assay: xn = mol fraction of the nth substance listed

CCCCCCCCCO + COC(=O)OC
Settings	viscosity [mPa·s]
293.15 K, 101 kPa, x1 = 0.008	0.63
293.15 K, 101 kPa, x2 = 0.06435	9.044
293.15 K, 101 kPa, x2 = 0.1251	7.282
293.15 K, 101 kPa, x2 = 0.2318	5.067
293.15 K, 101 kPa, x2 = 0.322	3.834
293.15 K, 101 kPa, x2 = 0.4095	2.962
293.15 K, 101 kPa, x2 = 0.4994	2.281
293.15 K, 101 kPa, x2 = 0.6032	1.706
293.15 K, 101 kPa, x2 = 0.699	1.3
293.15 K, 101 kPa, x2 = 0.7961	0.991
293.15 K, 101 kPa, x2 = 0.8901	0.776
303.15 K, 100 kPa, x2 = 0.1	5.632
303.15 K, 100 kPa, x2 = 0.1999	4.161
303.15 K, 100 kPa, x2 = 0.3	3.081
303.15 K, 100 kPa, x2 = 0.4	2.342
303.15 K, 100 kPa, x2 = 0.5	1.81
303.15 K, 100 kPa, x2 = 0.6	1.384
303.15 K, 100 kPa, x2 = 0.7	1.06
303.15 K, 100 kPa, x2 = 0.8	0.831
303.15 K, 100 kPa, x2 = 0.9	0.658
303.15 K, 101 kPa, x1 = 0.00584	0.55
303.15 K, 101 kPa, x2 = 0.04989	6.721
303.15 K, 101 kPa, x2 = 0.1183	5.358
303.15 K, 101 kPa, x2 = 0.2164	3.942
303.15 K, 101 kPa, x2 = 0.3115	2.991
303.15 K, 101 kPa, x2 = 0.4106	2.28
303.15 K, 101 kPa, x2 = 0.4935	1.832
303.15 K, 101 kPa, x2 = 0.6036	1.368
303.15 K, 101 kPa, x2 = 0.7016	1.059
303.15 K, 101 kPa, x2 = 0.7951	0.835
303.15 K, 101 kPa, x2 = 0.8982	0.657
308.15 K, 100 kPa, x2 = 0.1	4.801
308.15 K, 100 kPa, x2 = 0.1999	3.592
308.15 K, 100 kPa, x2 = 0.3	2.702
308.15 K, 100 kPa, x2 = 0.4	2.074
308.15 K, 100 kPa, x2 = 0.5	1.627
308.15 K, 100 kPa, x2 = 0.6	1.253
308.15 K, 100 kPa, x2 = 0.7	0.972
308.15 K, 100 kPa, x2 = 0.8	0.769
308.15 K, 100 kPa, x2 = 0.9	0.617
313.15 K, 100 kPa, x2 = 0.1	4.133
313.15 K, 100 kPa, x2 = 0.1999	3.123
313.15 K, 100 kPa, x2 = 0.3	2.398
313.15 K, 100 kPa, x2 = 0.4	1.848
313.15 K, 100 kPa, x2 = 0.5	1.467
313.15 K, 100 kPa, x2 = 0.6	1.141
313.15 K, 100 kPa, x2 = 0.7	0.893
313.15 K, 100 kPa, x2 = 0.8	0.713
313.15 K, 100 kPa, x2 = 0.9	0.579
313.15 K, 101 kPa, x1 = 0.00538	0.492
313.15 K, 101 kPa, x2 = 0.06799	4.566
313.15 K, 101 kPa, x2 = 0.1245	3.835
313.15 K, 101 kPa, x2 = 0.2254	2.876
313.15 K, 101 kPa, x2 = 0.2945	2.39
313.15 K, 101 kPa, x2 = 0.433	1.677
313.15 K, 101 kPa, x2 = 0.5255	1.342
313.15 K, 101 kPa, x2 = 0.6009	1.118
313.15 K, 101 kPa, x2 = 0.6997	0.882
313.15 K, 101 kPa, x2 = 0.8024	0.702
313.15 K, 101 kPa, x2 = 0.9014	0.571
318.15 K, 100 kPa, x2 = 0.1	3.586
318.15 K, 100 kPa, x2 = 0.1999	2.735
318.15 K, 100 kPa, x2 = 0.3	2.137
318.15 K, 100 kPa, x2 = 0.4	1.662
318.15 K, 100 kPa, x2 = 0.5	1.317
318.15 K, 100 kPa, x2 = 0.6	1.04
318.15 K, 100 kPa, x2 = 0.7	0.823
318.15 K, 100 kPa, x2 = 0.8	0.665
318.15 K, 100 kPa, x2 = 0.9	0.545
323.15 K, 100 kPa, x2 = 0.1	3.119
323.15 K, 100 kPa, x2 = 0.1999	2.397
323.15 K, 100 kPa, x2 = 0.3	1.888
323.15 K, 100 kPa, x2 = 0.4	1.494
323.15 K, 100 kPa, x2 = 0.5	1.199
323.15 K, 100 kPa, x2 = 0.6	0.951
323.15 K, 100 kPa, x2 = 0.7	0.763
323.15 K, 100 kPa, x2 = 0.8	0.621
323.15 K, 100 kPa, x2 = 0.9	0.514

O=[N+]([O-])c1ccccc1O + CN1CCC[C@H]1c1cccnc1
viscosity [mPa·s], 101.33 kPa
Settings	308.15 K	323.15 K
x2 = 0.102	–	2.724
x2 = 0.1563	5.072	3.073
x2 = 0.2019	5.996	3.527
x2 = 0.302	7.601	4.122
x2 = 0.3189	7.832	4.24
x2 = 0.3345	8.011	4.344
x2 = 0.3506	8.004	4.389
x2 = 0.3662	7.982	4.388
x2 = 0.4077	7.889	4.362
x2 = 0.5005	7.375	4.12
x2 = 0.603	6.569	3.83
x2 = 0.6988	5.676	3.421
x2 = 0.7988	4.612	2.927
x2 = 0.8937	3.86	2.523
